According to paper PMC4767605 (Cancer chemotherapy and pharmacology, 2016):
“And” between values parts separate entries of the source, which are not always exact repeats. Equal values may be shown once. Read-outs that look alike come from different tables or passages of the source.

[1] = ASP9853 Lead-in (n=20), single agent
[2] = Cohort 1 (n=6): ASP9853 25 mg + docetaxel 60 mg/m^2
[3] = Cohort 2 (n=4): ASP9853 25 mg + docetaxel 75 mg/m^2
[4] = Cohort 3 (n=3): ASP9853 37.5 mg + docetaxel 60 mg/m^2

For O.O.O=C(/C=C/c1ccc(Cl)cc1)N[C@@H](Cc1ccccn1)C(=O)NCC(=O)N1CCC(Oc2cc(C(F)(F)F)ncn2)CC1 [ASP9853, (2E)-3-(4-chlorophenyl)-N-[(1S)-2-oxo-2-{[2-oxo-2-(4-{[6-(trifluoromethyl)-4-pyrimidinyl]oxy}-1-piperidinyl)ethyl]amino}-1-(2-pyridinylmethyl)ethyl]acrylamide dehydrate], the “Toxicity noted in single-patient Cohort 1 (did not meet DLT criteria)” value (ASP9853 25 mg + docetaxel 60 mg/m^2) was “Grade 3 neutropenia”, the “Changes in liver function tests, vital signs, or electrocardiogram (ECGs)” value (ASP9853 + docetaxel) was “No clinically significant changes from baseline” and the “Neutropenia during treatment (laboratory evaluation)” value (ASP9853 + docetaxel) was “All patients experienced neutropenia”. The “Patients with AEs that led to treatment discontinuation” value (ASP9853 + docetaxel, all cohorts) was “Three”, the “AE potentially related to ASP9853: Anemia; Grade 3/4” value [1] was 0 n (%) and the “AE potentially related to ASP9853: Anemia; Grade All” value [1] was 0 n (%). The “AE potentially related to ASP9853: Asthenia; Grade 3/4” value [1] was 0 n (%), the “AE potentially related to ASP9853: Asthenia; Grade All” value [1] was 1 (5) n (%) and the “AE potentially related to ASP9853: Constipation; Grade 3/4” value [1] was 0 n (%). The “AE potentially related to ASP9853: Constipation; Grade All” value [1] was 0 n (%), the “AE potentially related to ASP9853: Decreased appetite; Grade 3/4” value [1] was 0 n (%) and the “AE potentially related to ASP9853: Decreased appetite; Grade All” value [1] was 0 n (%). For the same molecule, the “AE potentially related to ASP9853: Diarrhea; Grade 3/4 (only Grade 3)” value [1] was 0 n (%), the “AE potentially related to ASP9853: Diarrhea; Grade All” value [1] was 0 n (%) and the “AE potentially related to ASP9853: Dizziness; Grade 3/4” value [1] was 0 n (%). For the same molecule, the “AE potentially related to ASP9853: Dizziness; Grade All” value [1] was 0 n (%), the “AE potentially related to ASP9853: Fatigue; Grade 3/4 (only Grade 3)” value [1] was 0 n (%) and the “AE potentially related to ASP9853: Fatigue; Grade All” value [1] was 0 n (%). For the same molecule, the “AE potentially related to ASP9853: Febrile neutropenia; Grade 3/4” value [1] was 0 n (%), the “AE potentially related to ASP9853: Febrile neutropenia; Grade All” value [1] was 0 n (%) and the “AE potentially related to ASP9853: Nausea; Grade 3/4” value [1] was 0 n (%). The “AE potentially related to ASP9853: Nausea; Grade All” value [1] was 1(5) n (%), the “AE potentially related to ASP9853: Neutropenia; Grade 3/4” value [1] was 0 n (%) and the “AE potentially related to ASP9853: Neutropenia; Grade All” value [1] was 0 n (%). For the same molecule, the “AE potentially related to ASP9853: Neutrophil count decreased; Grade 3/4” value [1] was 0 n (%), the “AE potentially related to ASP9853: Neutrophil count decreased; Grade All” value [1] was 0 n (%) and the “AE potentially related to ASP9853: Overall; Grade 3/4” value [1] was 0 n (%). The “AE potentially related to ASP9853: Overall; Grade All” value [1] was 7 [35%] n (%) and 7 (35) n (%), the “AE potentially related to ASP9853: Vomiting; Grade 3/4” value [1] was 0 n (%) and the “AE potentially related to ASP9853: Vomiting; Grade All” value [1] was 1 (5) n (%). The “AE potentially related to ASP9853: White blood cell count decreased; Grade All” value [1] was 0 n (%), the “AE potentially related to ASP9853: Anemia; Grade 3/4” value [2] was 0 n (%) and the “AE potentially related to ASP9853: Anemia; Grade All” value [2] was 1 (17) n (%). The “AE potentially related to ASP9853: Asthenia; Grade 3/4” value [2] was 0 n (%), the “AE potentially related to ASP9853: Asthenia; Grade All” value [2] was 0 n (%) and the “AE potentially related to ASP9853: Constipation; Grade 3/4” value [2] was 0 n (%). For the same molecule, the “AE potentially related to ASP9853: Constipation; Grade All” value [2] was 1 (17) n (%), the “AE potentially related to ASP9853: Decreased appetite; Grade 3/4” value [2] was 0 n (%) and the “AE potentially related to ASP9853: Decreased appetite; Grade All” value [2] was 0 n (%). For the same molecule, the “AE potentially related to ASP9853: Diarrhea; Grade 3/4 (only Grade 3)” value [2] was 0 n (%), the “AE potentially related to ASP9853: Diarrhea; Grade All” value [2] was 1 (17) n (%) and the “AE potentially related to ASP9853: Dizziness; Grade 3/4” value [2] was 0 n (%). For the same molecule, the “AE potentially related to ASP9853: Dizziness; Grade All” value [2] was 0 n (%), the “AE potentially related to ASP9853: Fatigue; Grade 3/4 (only Grade 3)” value [2] was 0 n (%) and the “AE potentially related to ASP9853: Fatigue; Grade All” value [2] was 2 (33) n (%). For the same molecule, the “AE potentially related to ASP9853: Febrile neutropenia; Grade 3/4” value [2] was 0 n (%), the “AE potentially related to ASP9853: Febrile neutropenia; Grade All” value [2] was 0 n (%) and the “AE potentially related to ASP9853: Nausea; Grade 3/4” value [2] was 0 n (%). For the same molecule, the “AE potentially related to ASP9853: Nausea; Grade All” value [2] was 0 n (%), the “AE potentially related to ASP9853: Neutropenia; Grade 3/4” value [2] was 1 (17) n (%) and the “AE potentially related to ASP9853: Neutropenia; Grade All” value [2] was 1 (17) n (%). For the same molecule, the “AE potentially related to ASP9853: Neutrophil count decreased; Grade 3/4” value [2] was 0 n (%), the “AE potentially related to ASP9853: Neutrophil count decreased; Grade All” value [2] was 0 n (%) and the “AE potentially related to ASP9853: Overall; Grade 3/4” value [2] was 2 (33) n (%). The “AE potentially related to ASP9853: Overall; Grade All” value [2] was 5 (83) n (%), the “AE potentially related to ASP9853: Vomiting; Grade 3/4” value [2] was 0 n (%) and the “AE potentially related to ASP9853: Vomiting; Grade All” value [2] was 0 n (%). For the same molecule, the “AE potentially related to ASP9853: White blood cell count decreased; Grade All” value [2] was 1 (17) n (%), the “SAE considered related to ASP9853: diarrhea” value (Cohort 2) was 1 n and the “SAE considered related to ASP9853: febrile neutropenia” value (Cohort 2) was 2 n. The “AE potentially related to ASP9853: Anemia; Grade 3/4” value [3] was 0 n (%), the “AE potentially related to ASP9853: Anemia; Grade All” value [3] was 1 (25) n (%) and the “AE potentially related to ASP9853: Asthenia; Grade 3/4” value [3] was 0 n (%). The “AE potentially related to ASP9853: Asthenia; Grade All” value [3] was 2 (50) n (%), the “AE potentially related to ASP9853: Constipation; Grade 3/4” value [3] was 0 n (%) and the “AE potentially related to ASP9853: Constipation; Grade All” value [3] was 0 n (%). The “AE potentially related to ASP9853: Decreased appetite; Grade 3/4” value [3] was 0 n (%), the “AE potentially related to ASP9853: Decreased appetite; Grade All” value [3] was 1 (25) n (%) and the “AE potentially related to ASP9853: Diarrhea; Grade 3/4 (only Grade 3)” value [3] was 1 (25) n (%). For the same molecule, the “AE potentially related to ASP9853: Diarrhea; Grade All” value [3] was 2 (50) n (%), the “AE potentially related to ASP9853: Dizziness; Grade 3/4” value [3] was 0 n (%) and the “AE potentially related to ASP9853: Dizziness; Grade All” value [3] was 0 n (%). For the same molecule, the “AE potentially related to ASP9853: Fatigue; Grade 3/4 (only Grade 3)” value [3] was 1 (25) n (%), the “AE potentially related to ASP9853: Fatigue; Grade All” value [3] was 3 (75) n (%) and the “AE potentially related to ASP9853: Febrile neutropenia; Grade 3/4” value [3] was 2 (50) n (%). For the same molecule, the “AE potentially related to ASP9853: Febrile neutropenia; Grade All” value [3] was 2 (50) n (%), the “AE potentially related to ASP9853: Nausea; Grade 3/4” value [3] was 0 n (%) and the “AE potentially related to ASP9853: Nausea; Grade All” value [3] was 2 (50) n (%). The “AE potentially related to ASP9853: Neutropenia; Grade 3/4” value [3] was 0 n (%), the “AE potentially related to ASP9853: Neutropenia; Grade All” value [3] was 0 n (%) and the “AE potentially related to ASP9853: Neutrophil count decreased; Grade 3/4” value [3] was 0 n (%). The “AE potentially related to ASP9853: Neutrophil count decreased; Grade All” value [3] was 0 n (%), the “AE potentially related to ASP9853: Overall; Grade 3/4” value [3] was 3 (75) n (%) and the “AE potentially related to ASP9853: Overall; Grade All” value [3] was 3 (75) n (%). For the same molecule, the “AE potentially related to ASP9853: Vomiting; Grade 3/4” value [3] was 0 n (%), the “AE potentially related to ASP9853: Vomiting; Grade All” value [3] was 3 (75) n (%) and the “AE potentially related to ASP9853: White blood cell count decreased; Grade All” value [3] was 0 n (%). For the same molecule, the “AE potentially related to ASP9853: Anemia; Grade 3/4” value [4] was 0 n (%), the “AE potentially related to ASP9853: Anemia; Grade All” value [4] was 0 n (%) and the “AE potentially related to ASP9853: Asthenia; Grade 3/4” value [4] was 0 n (%). The “AE potentially related to ASP9853: Asthenia; Grade All” value [4] was 0 n (%), the “AE potentially related to ASP9853: Constipation; Grade 3/4” value [4] was 0 n (%) and the “AE potentially related to ASP9853: Constipation; Grade All” value [4] was 1 (33) n (%). The “AE potentially related to ASP9853: Decreased appetite; Grade 3/4” value [4] was 0 n (%).
